“And” between values parts separate entries of the source, which are not always exact repeats. Equal entries are not always repeated.
Tests used:
HIV-2 cell line, CEMROD = assay: Long term in vitro study, CEMROD, reverse transcriptase; format: cell-based
Method: (§1) A microtiter-based reveres transcriptase (RT) reaction is utilized (Buckheit et al (1991) AIDS Research and Human Retroviruses 7:295-302). Tritiated thymidine triphosphate (NEN)(TTP) is resuspended in distilled water at 5 Ci/ml. Poly rA and oligo dT are prepared as a stock solution which is kept at −20° C. The RT reaction buffer is prepared fresh on a daily basis and consists of 125 μl 1M EGTA, 125 μl water, 125 μl Triton X-100, 50 μl Tris (pH 7.4), 50 μl 1 MDDT, and 40 μl 1M MgCl2. These three solutions are mixed together in a ratio of 1 part TTP, 2.5 parts poly rA:oligo dT, 2.5 parts reaction buffer and 4 parts distilled water. Ten microliters of this reaction mixture is placed in a round bottom microtiter place and 15 μl of virus containing supernatant is added and mixed. The plate is incubated at 37° C. for 60 minutes. Following reaction, the reaction volume is spotted onto filter mats, washed 6 times for 5 minutes each in a 5% sodium phosphate buffer, 2 times for 1 minute each in distilled water, 2 times for 1 minute each in 70% ethanol, and then dried. The dried filter mat is placed in a plastic sample bag, Betaplate scintillation fluid is added and the bag is heat sealed. Incorporated radioactivity is quantified utilizing a Wallac Microbeta scintillation counter.
Acute infection of most established human cell lines with HIV-1 results in the eventual establishment of a constitutive virus-producing chronically infected cell line. The cells can be passaged for long periods of time in culture without loss of virus production. These cells may be utilized to evaluate the effects of anti-HIV compounds on syncytium formation or to evaluate the effects of anti-HIV compounds on levels of virus production from these cells. […] Each of the cells contains an integrated HIV genome or provirus. Chronically infected CEM, H9 and U937 cell lines have been prepared and cultured by Southern Research Institute, Frederick Md. and are available from them.
CEM-SS cells chronically infected with HIV isolate, for example SKI (CEM-SKI) are cultured in RPMI1640 tissue culture medium supplemented with 10% fetal bovine serum and antibiotics. […] CEM-SKI or other infected cells with no added drug are used as the control cells. Cells are allowed to grow to a density of approximately 1×10^6 cells/ml and are then passaged at a 1:10 dilution. […] The drug concentration in the flask is then increased two-fold and the cells maintained as above.
The cell populations contain integrated copies of the HIV genome and constitutively produce HIV at relatively high levels or are latently infected and only produce virus after stimulation with phorbol esters, tumor necrosis factor or IL6 (U1 and ACH2). Reductions in virus products were observed when quantifying supernatant reverse transcriptase activity,
A long term in vitro study of 2-(2-thienyl)-imidazolo [4,5-b]pyridine against an HIV-2 cell line, CEMROD was conducted at three different levels. The results with CEMROD cells were reported at weekly intervals.

HIV-2 virus, CEMROD = assay: In vitro screening against HIV-2 virus, CEMROD: reverse transcriptase activity; format: cell-based; design: Reverse Transcriptase Activity, samples 1-3 / Reverse Transcriptase Activity, average: unit not given here
Method: as §1

[1] = Table 2 duplicate study, 0.32 μg/ml
[2] = Table 2 duplicate study, 1 μg/ml
[3] = Table 2 duplicate study, 1.0 μg/ml
[4] = Table 2 duplicate study, 3.2 μg/ml
[5] = Table 2 duplicate study, 32 μg/ml
[6] = Table 2 duplicate study, 100 μg/ml

Molecule `c1csc(-c2nc3cccnc3[nH]2)c1` [2-(2-thienyl)-imidazolo [4,5-b]pyridine] has a reverse transcriptase data (HIV-2 cell line, CEMROD; 7 μg/ml, day 4) of 8506, a reverse transcriptase data (HIV-2 cell line, CEMROD; 7 μg/ml, day 11) of 9471 and a reverse transcriptase data (HIV-2 cell line, CEMROD; 7 μg/ml, day 18) of 6147. For the same molecule, the reverse transcriptase data (HIV-2 cell line, CEMROD; 7 μg/ml, day 25) was 6302, the reverse transcriptase data (HIV-2 cell line, CEMROD; 7 μg/ml, day 32) was 5482 and the reverse transcriptase data (HIV-2 cell line, CEMROD; 7 μg/ml, day 39) was 7253. The reverse transcriptase data (HIV-2 cell line, CEMROD; 7 μg/ml, day 46) was 4822, the reverse transcriptase data (HIV-2 cell line, CEMROD; 7 μg/ml, day 53) was 7257 and the reverse transcriptase data (HIV-2 cell line, CEMROD; 7 μg/ml, day 60) was 7019. It also gave a reverse transcriptase data (HIV-2 cell line, CEMROD; 7 μg/ml, day 67) of 7215, a reverse transcriptase data (HIV-2 cell line, CEMROD; 7 μg/ml, day 71) of 9052 and a reverse transcriptase data (HIV-2 cell line, CEMROD; 7 μg/ml, day 74) of 6240. It also gave a reverse transcriptase data (HIV-2 cell line, CEMROD; 7 μg/ml, day 88) of 10053, a reverse transcriptase data (HIV-2 cell line, CEMROD; 7 μg/ml, day 95) of 7482 and a reverse transcriptase data (HIV-2 cell line, CEMROD; 7 μg/ml, day 102) of 8023. The reverse transcriptase data (HIV-2 cell line, CEMROD; 7 μg/ml, day 109) was 13890, the reverse transcriptase data (HIV-2 cell line, CEMROD; 15 μg/ml, day 4) was 7447 and the reverse transcriptase data (HIV-2 cell line, CEMROD; 15 μg/ml, day 11) was 8887. It also gave a reverse transcriptase data (HIV-2 cell line, CEMROD; 15 μg/ml, day 18) of 5399, a reverse transcriptase data (HIV-2 cell line, CEMROD; 15 μg/ml, day 25) of 5040 and a reverse transcriptase data (HIV-2 cell line, CEMROD; 15 μg/ml, day 32) of 4695. It also gave a reverse transcriptase data (HIV-2 cell line, CEMROD; 15 μg/ml, day 39) of 6277, a reverse transcriptase data (HIV-2 cell line, CEMROD; 15 μg/ml, day 46) of 2165 and a reverse transcriptase data (HIV-2 cell line, CEMROD; 15 μg/ml, day 53) of 6546. The reverse transcriptase data (HIV-2 cell line, CEMROD; 15 μg/ml, day 60) was 5940, the reverse transcriptase data (HIV-2 cell line, CEMROD; 15 μg/ml, day 67) was 3215 and the reverse transcriptase data (HIV-2 cell line, CEMROD; 15 μg/ml, day 71) was 7256. It also gave a reverse transcriptase data (HIV-2 cell line, CEMROD; 15 μg/ml, day 74) of 4687, a reverse transcriptase data (HIV-2 cell line, CEMROD; 15 μg/ml, day 88) of 8277 and a reverse transcriptase data (HIV-2 cell line, CEMROD; 15 μg/ml, day 95) of 5116. For the same molecule, the reverse transcriptase data (HIV-2 cell line, CEMROD; 15 μg/ml, day 102) was 6546, the reverse transcriptase data (HIV-2 cell line, CEMROD; 15 μg/ml, day 109) was 10349 and the reverse transcriptase data (HIV-2 cell line, CEMROD; 30 μg/ml, day 4) was 4426. The reverse transcriptase data (HIV-2 cell line, CEMROD; 30 μg/ml, day 11) was 7092, the reverse transcriptase data (HIV-2 cell line, CEMROD; 30 μg/ml, day 18) was 3322 and the reverse transcriptase data (HIV-2 cell line, CEMROD; 30 μg/ml, day 25) was 3212. For the same molecule, the reverse transcriptase data (HIV-2 cell line, CEMROD; 30 μg/ml, day 32) was 3960, the reverse transcriptase data (HIV-2 cell line, CEMROD; 30 μg/ml, day 39) was 4543 and the reverse transcriptase data (HIV-2 cell line, CEMROD; 30 μg/ml, day 46) was 1245. The reverse transcriptase data (HIV-2 cell line, CEMROD; 30 μg/ml, day 53) was 2402, the reverse transcriptase data (HIV-2 cell line, CEMROD; 30 μg/ml, day 60) was 2410 and the reverse transcriptase data (HIV-2 cell line, CEMROD; 30 μg/ml, day 67) was 1843. It also gave a reverse transcriptase data (HIV-2 cell line, CEMROD; 30 μg/ml, day 71) of 2121, a reverse transcriptase data (HIV-2 cell line, CEMROD; 30 μg/ml, day 74) of 1285 and a reverse transcriptase data (HIV-2 cell line, CEMROD; 30 μg/ml, day 88) of 2543. For the same molecule, the reverse transcriptase data (HIV-2 cell line, CEMROD; 30 μg/ml, day 95) was 2245, the reverse transcriptase data (HIV-2 cell line, CEMROD; 30 μg/ml, day 102) was 2402 and the reverse transcriptase data (HIV-2 cell line, CEMROD; 30 μg/ml, day 109) was 1140. The “reverse transcriptase data on continuation (in words)” value (HIV-2 cell line, CEMROD; run through 242 days) was “data remained consistent”, the “Reverse Transcriptase Activity, % virus control” value (HIV-2 virus, CEMROD; Table 1, 0.32 μg/ml) was 119% and the “Reverse Transcriptase Activity, average” value (HIV-2 virus, CEMROD; Table 1, 0.32 μg/ml) was 5947. For the same molecule, the “Reverse Transcriptase Activity, samples 1-3” value (HIV-2 virus, CEMROD; Table 1, 0.32 μg/ml) was 5878 and 5529 and 6435, the “Reverse Transcriptase Activity, % virus control” value (HIV-2 virus, CEMROD; Table 1, 1 μg/ml) was 103.8% and the “Reverse Transcriptase Activity, average” value (HIV-2 virus, CEMROD; Table 1, 1 μg/ml) was 5188. For the same molecule, the “Reverse Transcriptase Activity, samples 1-3” value (HIV-2 virus, CEMROD; Table 1, 1 μg/ml) was 5002 and 5086 and 5476, the “Reverse Transcriptase Activity, % virus control” value (HIV-2 virus, CEMROD; Table 1, 1.0 μg/ml) was 48.1% and the “Reverse Transcriptase Activity, average” value (HIV-2 virus, CEMROD; Table 1, 1.0 μg/ml) was 2403. For the same molecule, the “Reverse Transcriptase Activity, samples 1-3” value (HIV-2 virus, CEMROD; Table 1, 1.0 μg/ml) was 2812 and 2206 and 2190, the “Reverse Transcriptase Activity, % virus control” value (HIV-2 virus, CEMROD; Table 1, 3.2 μg/ml) was 84.0% and the “Reverse Transcriptase Activity, average” value (HIV-2 virus, CEMROD; Table 1, 3.2 μg/ml) was 4201. For the same molecule, the “Reverse Transcriptase Activity, samples 1-3” value (HIV-2 virus, CEMROD; Table 1, 3.2 μg/ml) was 4005 and 4017 and 4580, the “Reverse Transcriptase Activity, % virus control” value (HIV-2 virus, CEMROD; Table 1, 32 μg/ml) was 8.1% and the “Reverse Transcriptase Activity, average” value (HIV-2 virus, CEMROD; Table 1, 32 μg/ml) was 407. The “Reverse Transcriptase Activity, samples 1-3” value (HIV-2 virus, CEMROD; Table 1, 32 μg/ml) was 382 and 390 and 450, the “Reverse Transcriptase Activity, % virus control” value (HIV-2 virus, CEMROD; Table 1, 100 μg/ml) was 1.4% and the “Reverse Transcriptase Activity, average” value (HIV-2 virus, CEMROD; Table 1, 100 μg/ml) was 72. The “Reverse Transcriptase Activity, samples 1-3” value (HIV-2 virus, CEMROD; Table 1, 100 μg/ml) was 80 and 68, the “Reverse Transcriptase Activity, % virus control” value (HIV-2 virus, CEMROD; [1]) was 116.6% and the “Reverse Transcriptase Activity, average” value (HIV-2 virus, CEMROD; [1]) was 5616. For the same molecule, the “Reverse Transcriptase Activity, samples 1-3” value (HIV-2 virus, CEMROD; [1]) was 4758 and 5725 and 6365, the “Reverse Transcriptase Activity, % virus control” value (HIV-2 virus, CEMROD; [2]) was 121.1% and the “Reverse Transcriptase Activity, average” value (HIV-2 virus, CEMROD; [2]) was 5833. For the same molecule, the “Reverse Transcriptase Activity, samples 1-3” value (HIV-2 virus, CEMROD; [2]) was 4251 and 6264 and 6984, the “Reverse Transcriptase Activity, % virus control” value (HIV-2 virus, CEMROD; [3]) was 51.1% and the “Reverse Transcriptase Activity, average” value (HIV-2 virus, CEMROD; [3]) was 2463. For the same molecule, the “Reverse Transcriptase Activity, samples 1-3” value (HIV-2 virus, CEMROD; [3]) was 2776 and 2531 and 2081, the “Reverse Transcriptase Activity, % virus control” value (HIV-2 virus, CEMROD; [4]) was 100.0% and the “Reverse Transcriptase Activity, average” value (HIV-2 virus, CEMROD; [4]) was 4819. For the same molecule, the “Reverse Transcriptase Activity, samples 1-3” value (HIV-2 virus, CEMROD; [4]) was 5050 and 5352 and 4054, the “Reverse Transcriptase Activity, % virus control” value (HIV-2 virus, CEMROD; [5]) was 4.1% and the “Reverse Transcriptase Activity, average” value (HIV-2 virus, CEMROD; [5]) was 197. The “Reverse Transcriptase Activity, samples 1-3” value (HIV-2 virus, CEMROD; [5]) was 173 and 177 and 241, the “Reverse Transcriptase Activity, % virus control” value (HIV-2 virus, CEMROD; [6]) was 0.9% and the “Reverse Transcriptase Activity, average” value (HIV-2 virus, CEMROD; [6]) was 44. The “efficacy in treating HIV (in words)” value (HIV-2 virus, CEMROD; at the higher concentrations) was “shows efficacy”.
